Reference: publication PMC8629322 (ACS chemical neuroscience, 2020)

How the values were obtained:
[1] = molecular target: T1, FAM-RNA:MSUT2 ZF complex (poly(A):MSUT2 RNA-protein interaction) (Homo sapiens, UniProt Q6PJT7); assay: Fluorescence polarization assay of FAM-poly; type: binding
T1 sequence (Q6PJT7 601-736): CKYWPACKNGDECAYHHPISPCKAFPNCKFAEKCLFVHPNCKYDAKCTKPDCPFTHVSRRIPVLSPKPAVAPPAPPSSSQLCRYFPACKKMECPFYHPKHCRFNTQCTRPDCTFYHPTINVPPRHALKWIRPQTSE

[2] = molecular target: T2, PABPN1 (Homo sapiens, UniProt Q86U42); assay: PABPN1 fluorescence polarization counter screen; type: binding
T2 sequence (Q86U42 1-306): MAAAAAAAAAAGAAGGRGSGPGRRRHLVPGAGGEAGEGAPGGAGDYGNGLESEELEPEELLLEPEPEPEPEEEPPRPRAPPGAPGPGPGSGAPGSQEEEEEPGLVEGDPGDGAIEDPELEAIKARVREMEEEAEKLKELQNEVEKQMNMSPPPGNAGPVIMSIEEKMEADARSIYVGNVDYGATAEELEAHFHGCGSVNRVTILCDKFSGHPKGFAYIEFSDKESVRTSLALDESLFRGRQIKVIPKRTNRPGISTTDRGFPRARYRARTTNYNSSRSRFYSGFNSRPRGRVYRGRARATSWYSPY

[3] = molecular target: T3, biotinylated RNA:GST-MSUT2 ZF (Homo sapiens, UniProt Q6PJT7); assay: AlphaScreen orthogonal poly; type: binding; conditions: for inhibition activity by AlphaScreen: dose-response, 50 nM biotinylated RNA, 50 nM GST-MSUT2
T3 sequence (Q6PJT7 601-736): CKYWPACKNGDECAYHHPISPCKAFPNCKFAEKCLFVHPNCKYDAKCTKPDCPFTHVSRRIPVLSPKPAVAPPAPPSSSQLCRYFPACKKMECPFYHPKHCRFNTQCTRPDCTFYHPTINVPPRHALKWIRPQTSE

[4] = cited from earlier work
[5] = tested on: poly(A); conditions: cited from earlier work
[6] = Cell viability assay; conditions: human, HEK293 cells
[7] = tested on: albumin and α1-acid glycoprotein in the plasma; conditions: cited from earlier work
[8] = tested on: hippocampus neuronal loss; conditions: rat model of chronic cerebral hypoperfusion; cited from earlier work
[9] = tested on: efflux transporters; conditions: cited from earlier work
[10] = molecular target: T4, MSUT2 ZF (CCCH domains only) (UniProt Q6PJT7 601-736); assay: competition
T4 sequence: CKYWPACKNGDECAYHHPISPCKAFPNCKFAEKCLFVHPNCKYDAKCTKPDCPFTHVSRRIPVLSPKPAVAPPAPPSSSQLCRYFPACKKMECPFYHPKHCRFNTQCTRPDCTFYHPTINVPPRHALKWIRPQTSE

Row | IC50 [1] [nM] | IC50 [2] [µM] | inhibition activity by AlphaScreen [3] | Molecule | other results
1 | 731 | 23 | dose-dependent inhibition activity | CC(C)/N=c1\cc2n(-c3ccc(Cl)cc3)c3ccccc3nc-2cc1Nc1ccc(Cl)cc1 [clofazimine] | crossing of the blood-brain barrier [4]: unable to cross the blood-brain barrier; interaction with poly(A) [5]: little interaction; viability at 72 h [6]: > 90%
2 | – | 9.09 | – | OCCOCCN1CCN(C(c2ccccc2)c2ccc(Cl)cc2)CC1 (centres unmarked) [hydroxyzine] | –
3 | 247 | 35.8 | – | CC(C)(C)NC(=O)[C@@H]1CN(Cc2cccnc2)CCN1C[C@@H](O)C[C@@H](Cc1ccccc1)C(=O)N[C@H]1c2ccccc2C[C@H]1O [indinavir] | –

More lines, now with the values behind:

Row | Molecule | IC50 [1] [nM] | IC50 [2] [µM] | inhibition activity by AlphaScreen [3] | other results
4 | CNCC[C@H](Oc1cccc2ccccc12)c1cccs1 [duloxetine] | – | 4.98 | dose-dependent inhibition activity | concentration range of inhibitory response in FP assay ([1]; acted over 4 log units): 0.01 to 10 µM; concentration range of inhibition measured by AS ([3]; over a single log unit): 1.0 to 10 µM; penetration into cerebral spinal fluid [4]: crosses into cerebral spinal fluid at a much lower rate than other antidepressants; bound to albumin and α1-acid glycoprotein in the plasma [7]: ~ 90%; neuronal loss in the hippocampus [8]: attenuated neuronal loss in the hippocampus; viability at 72 h [6]: > 90%
5 | CC(C(=O)O)c1ccc(-c2ccccc2)c(F)c1 (centres unmarked) [flurbiprofen] | – | 6.69 | – | –
6 | CN1C2CCCC1CC(NC(=O)c1nn(C)c3ccccc13)C2 (centres unmarked) [granisetron] | 306 | 8.65 | – | –
7 | CC(C)(C)NC(=O)[C@@H]1C[C@@H]2CCCC[C@@H]2CN1C[C@@H](O)[C@H](Cc1ccccc1)NC(=O)[C@H](CC(N)=O)NC(=O)c1ccc2ccccc2n1 [saquinavir] | – | 0.617 | dose-dependent inhibition activity | brain penetrance [4]: low brain penetrance; efflux transporter substrate [9]: substrate of efflux transporters; viability at 72 h, 40 µM [6]: 65%
8 | AAAAAAAAAAAAAAA (ssRNA) [unlabeled poly(A)15 RNA] | – | – | – | IC50 [10]: 290 nM
